Measurements from US20110306572A1, “COMBINATION THERAPY FOR THE TREATMENT OF CANCER USING COX-2 INHIBITORS AND DUAL InHIBITORS OF EGFR [ErbB1] AND HER-2 [ErbB2]” (TRAGARA PHARMACEUTICALS, INC, priority 2007, published 2011).

How the values were obtained:
[1] = patients taking lapatinib; cited from earlier work
[2] = human, in vivo

| SMILES | patients with common side effects (rash, diarrhea, fatigue, palmar plantar erythrodysesthesia, nausea and vomiting) [1] | gastric or duodenal toxicity [2] |
| --- | --- | --- |
| CS(=O)(=O)CCNCc1ccc(-c2ccc3ncnc(Nc4ccc(OCc5cccc(F)c5)c(Cl)c4)c3c2)o1 [Lapatinib, N-(3-chloro-4-{[(3-fluorophenyl)methyl]oxy}phenyl)-6-[5-({[2-methylsulfonyl)ethyl]amino}methyl)-2-furanyl]-4-quinazolinamine bis(4-methylbenzenesulfonate) monohydrate, bis(4-methylbenzenesulfonate) …] | greater than 20 % of patients |  |
| CCOc1ccc(-c2cc(C)cn2-c2ccc(S(N)(=O)=O)cc2)cc1 [2-(4-ethoxyphenyl)-4-methyl-1-(4-sulfamoylphenyl)-pyrrole] |  | no increase in gastric or duodenal toxicity |
